Data set [1] can be described thus: Metal response of PAN-7OH, absorbance at pH 7. It counts as binding. The following applies: 25 μM PAN-7OH, 250 μM metal ion, pH 7 buffer, 2 mM Triton X-100. Here is the method:
(§1) Solutions were made containing 25 μM PAN-7OH and 250 μM metal ion (excess amount) in pH 7 buffer containing 2 mM Triton X-100.

Data set [2] can be described thus: Metal response of PAN-7OH, absorbance at pH 7. It counts as binding. As to conditions: 25 μM PAN-7OH, 250 μM metal ion, pH 7 buffer, 2 mM Triton X-100. Here is the method: as §1
The source holds these as a separate data set.

The nature of data set [3]: Metal response of PAN-7OH, absorbance at pH 7. The following applies: 25 μM PAN-7OH, 250 μM metal ion, pH 7 buffer, 2 mM Triton X-100. It counts as binding. The procedure: as §1
This is another data set of the same source.

Data set [4] can be described thus: Metal response of PAN-7OH, absorbance at pH 7. The following applies: 25 μM PAN-7OH, 250 μM metal ion, pH 7 buffer, 2 mM Triton X-100. It counts as binding. Here is the method:
as §1
This is another data set of the same source.

The nature of data set [5]: Metal response of PAN-7OH, absorbance at pH 7. The following applies: 25 μM PAN-7OH, 250 μM metal ion, pH 7 buffer, 2 mM Triton X-100. Type of data set: binding. The procedure:
as §1
This is another data set of the same source.

The nature of data set [6]: Protonation states of Zn-(PAN-7OH) complexes.
Data set [7] is described as follows: Metal response of PAN-7OH, absorbance at pH 7. Type of data set: binding. The following applies: 25 μM PAN-7OH, 250 μM metal ion, pH 7 buffer, 2 mM Triton X-100. Here is the method:
as §1
This is another data set of the same source.

Data set [8] in a line: Metal response of PAN-7OH, absorbance at pH 7. Type of data set: binding. The following applies: 25 μM PAN-7OH, 250 μM metal ion, pH 7 buffer, 2 mM Triton X-100. Here is the method: as §1
The source holds these as a separate data set.

Data set [9] can be described thus: Metal response of PAN-7OH, absorbance at pH 7. The following applies: 25 μM PAN-7OH, 250 μM metal ion, pH 7 buffer, 2 mM Triton X-100. Type of data set: binding. Here is the method:
as §1
The source holds these as a separate data set.

Data set [10] in a line: Protonation states of free PAN-7OH, pKA. Type of data set: physicochemical. As to conditions: free dye; site 1-OH (Metal Binding). The procedure: The acid dissociation constants (pKA) and spectral profiles were determined for PAN-70H. PAN-7OH has three protonation sites: The heterocyclic nitrogen in the pyridyl moiety, and the two hydroxyl groups on the naphthalene ring. […] The latter group can potentially be used for covalent attachment of the sensor to a substrate.
The buffer reagents were treated with Chelex-100 to remove trace metal impurities. The samples were prepared containing 25 μM PAN-7OH in a 0.1 M pH buffer containing 2 mM Triton X-100 surfactant.
The data was analyzed using ReactLab Equilibria to determine the resulting pKA values. PAN-7OH has three protonation sites, so four species were used for the analysis model. The pKA values were assigned using values from well-known molecules with a similar structure. […] No error propagation calculations were performed here.

Data set [11] is described as follows: Metal response of PAN-7OH, absorbance at pH 7. As to conditions: 25 μM PAN-7OH, 250 μM metal ion, pH 7 buffer, 2 mM Triton X-100. Type of data set: binding. The procedure: as §1
The source holds these as a separate data set.

A short description of data set [12]: Metal response of PAN-7OH, absorbance at pH 7. As to conditions: 25 μM PAN-7OH, 250 μM metal ion, pH 7 buffer, 2 mM Triton X-100. It counts as binding. The procedure:
as §1
This is another data set of the same source.

Data set [13] is described as follows: Metal response of PAN-7OH, absorbance at pH 7. Type of data set: binding. As to conditions: 25 μM PAN-7OH, 250 μM metal ion, pH 7 buffer, 2 mM Triton X-100. Here is the method:
as §1
This is another data set of the same source.

Data set [14] is described as follows: Metal response of PAN-7OH, absorbance at pH 7. It counts as binding. As to conditions: 25 μM PAN-7OH, 250 μM metal ion, pH 7 buffer, 2 mM Triton X-100. The procedure: as §1
This is another data set of the same source.

A short description of data set [15]: Metal response of PAN-7OH, absorbance at pH 7. It counts as binding. The following applies: 25 μM PAN-7OH, 250 μM metal ion, pH 7 buffer, 2 mM Triton X-100. Here is the method:
as §1
This is another data set of the same source.

For the molecule `Oc1ccc2ccc(O)c(N=Nc3ccccn3)c2c1` [PAN-7OH], the “absorbance change relative to the free dye” value was “did not exhibit an appreciable absorbance change” in data set [1]; “red-shifted absorbance” in [2]; “red-shifted absorbance” in [2] (minor); “blue-shifted absorbance” in [3]; “red-shifted absorbance” in data set [4]; “did not exhibit an appreciable absorbance change” in [5]. Also, the “absorbance change relative to the free dye” value is “did not exhibit an appreciable absorbance change” in data set [7]; “red-shifted absorbance” in data set [8]; “did not exhibit an appreciable absorbance change” in data set [9]; “red-shifted absorbance” in data set [11]; “blue-shifted absorbance” in [12]; “did not exhibit an appreciable absorbance change” in data set [13]. For the same molecule, the “absorbance change relative to the free dye” value in data set [14] and in [15] was “red-shifted absorbance” each time. For the same molecule, the “pH at which the Zn-(PAN-7OH) complexes decomposed, strongly alkaline conditions” value in [6] is recorded as more than 12 pH. In [6], the “pH at which the Zn-(PAN-7OH) complexes decomposed, weakly acidic conditions” value is on record as less than 6 pH. In addition, the “Acidic Dissociation” value in data set [6] (Zn(PAN-7OH)2H2 decomposition under acidic conditions, midpoint of species distribution curve) turned out to be 5.272. Also, the “Alkaline Dissociation” value in data set [6] (Zn(PAN-7OH)2^2− decomposition, zinc hydroxide formation, strongly alkaline conditions, midpoint of curve) amounted to 13.164. Besides, the “Complex pKA” value in data set [6] (non-binding hydroxyl group in the Zn-(PAN-7OH) complex, 20 μM PAN-7OH, 20 μM zinc) turned out to be 10.449. Moreover, the pKA in [10] turned out to be 12.258.

These data come from patent publication US11275071B2, “Sensor dyes for real-time sensing of metal ions in aqueous environments” (UWM Research Foundation, Inc., priority 2015, dated 2022).
